Target: T1, human mAChR M1 (Homo sapiens, UniProt P11229)
T1 sequence (P11229 1-460): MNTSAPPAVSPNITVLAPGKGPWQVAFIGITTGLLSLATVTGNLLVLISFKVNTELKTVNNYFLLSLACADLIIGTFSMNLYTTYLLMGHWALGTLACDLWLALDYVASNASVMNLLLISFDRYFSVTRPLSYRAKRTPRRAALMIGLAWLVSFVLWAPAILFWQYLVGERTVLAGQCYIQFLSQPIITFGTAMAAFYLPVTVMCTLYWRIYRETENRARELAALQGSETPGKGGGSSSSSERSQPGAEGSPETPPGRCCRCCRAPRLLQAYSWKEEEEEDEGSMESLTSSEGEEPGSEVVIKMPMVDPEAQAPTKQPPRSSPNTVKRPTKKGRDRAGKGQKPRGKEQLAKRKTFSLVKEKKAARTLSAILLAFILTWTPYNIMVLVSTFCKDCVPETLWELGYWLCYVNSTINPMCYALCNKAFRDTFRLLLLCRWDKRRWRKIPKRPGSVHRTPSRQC
Assay: mAChR M1 cell-based functional assay: calcium mobilization, positive allosteric modulator mode (increase in EC20 acetylcholine response)
Conditions: Table 2, human M1; for EC50: read-out: Human M1 EC50; for Emax: read-out: Human M1 Emax (%)
How it was run: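 PAM potency reflects the concentration-dependent increase in calcium response to an EC20 acetylcholine challenge, given 144 s into a 300 s read after compound addition at 4 s (EC80 follows at 230 s). Cells were hM1-expressing CHO-K1, loaded 50 min with Fluo-4 AM. Curves used 11 points at 1:3 dilutions and four-parameter logistic fitting.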

EC50 [nM]	Emax [%]	SMILES
84.9	93.3	Cn1cc(-c2ccc(Cc3cc(C(=O)NCC4CCO4)nc4ccsc34)cn2)cn1 (stereo not drawn) [Compound 338, 7-[[6-(1-methylpyrazol-4-yl)-3-pyridyl]methyl]-N-(oxetan-2-ylmethyl)thieno[3,2-b]pyridine-5-carboxamide]
131	87.4	Cn1cc(-c2ccc(Cc3cc(C(=O)NC[C@H]4CCCO4)nc4ccsc34)cn2)cn1 [Compound 339, 7-[[6-(1-methylpyrazol-4-yl)-3-pyridyl]methyl]-N-[[(2R)-tetrahydrofuran-2-yl]methyl]thieno[3,2-b]pyridine-5-carboxamide]
225	88.3	Cn1cc(-c2ccc(Cc3cc(C(=O)NCC4CCCCO4)nc4ccsc34)cn2)cn1 (stereo not drawn) [Compound 340, 7-[[6-(1-methylpyrazol-4-yl)-3-pyridyl]methyl]-N-(tetrahydropyran-2-ylmethyl)thieno[3,2-b]pyridine-5-carboxamide]
1690	78.8	Cn1cc(-c2ccc(Cc3cc(C(=O)NC4COC4)nc4ccsc34)cn2)cn1 [Compound 341, 7-[[6-(1-methylpyrazol-4-yl)-3-pyridyl]methyl]-N-(oxetan-3-yl)thieno[3,2-b]pyridine-5-carboxamide]
289	89.5	COCCNC(=O)c1cc(Cc2ccc(-c3cnn(C)c3)nc2)c2sccc2n1 [Compound 342, N-(2-methoxyethyl)-7-[[6-(1-methylpyrazol-4-yl)-3-pyridyl]methyl]thieno[3,2-b]pyridine-5-carboxamide]
975	80.8	Cn1cc(-c2ccc(Cc3cc(C(=O)N[C@H]4CCOC4)nc4ccsc34)cn2)cn1 [Compound 343, 7-[[6-(1-methylpyrazol-4-yl)-3-pyridyl]methyl]-N-[(3S)-tetrahydrofuran-3-yl]thieno[3,2-b]pyridine-5-carboxamide]
798	85.5	Cn1cc(-c2ccc(Cc3cc(C(=O)N[C@@H]4CCOC4)nc4ccsc34)cn2)cn1 [Compound 344, 7-[[6-(1-methylpyrazol-4-yl)-3-pyridyl]methyl]-N-[(3R)-tetrahydrofuran-3-yl]thieno[3,2-b]pyridine-5-carboxamide]
203	74.5	Cn1cc(-c2ccc(Cc3cc(C(=O)NC4CC(F)(F)C4)nc4ccsc34)cn2)cn1 [Compound 345, N-(3,3-difluorocyclobutyl)-7-[[6-(1-methylpyrazol-4-yl)-3-pyridyl]methyl]thieno[3,2-b]pyridine-5-carboxamide]
266	89.4	Cn1cc(-c2ccc(Cc3cc(C(=O)NC4CC(F)C4)nc4ccsc34)cn2)cn1 (stereo not drawn) [Compound 346, N-(3-fluorocyclobutyl)-7-[[6-(1-methylpyrazol-4-yl)-3-pyridyl]methyl]thieno[3,2-b]pyridine-5-carboxamide]
499	82.2	Cn1cc(-c2ccc(Cc3cc(C(=O)N[C@H]4CCCOC4)nc4ccsc34)cn2)cn1 [Compound 347, 7-[[6-(1-methylpyrazol-4-yl)-3-pyridyl]methyl]-N-[(3S)-tetrahydropyran-3-yl]thieno[3,2-b]pyridine-5-carboxamide]
128	85.6	Cn1cc(-c2ccc(Cc3cc(C(=O)NCC4CCOC4)nc4ccsc34)cn2)cn1 (stereo not drawn) [Compound 348, 7-[[6-(1-methylpyrazol-4-yl)-3-pyridyl]methyl]-N-(tetrahydrofuran-3-ylmethyl)thieno[3,2-b]pyridine-5-carboxamide]
25.4	89.8	Cn1cc(-c2ccc(Cc3cc(C(=O)NC[C@@H]4CCCO4)nc4ccsc34)cn2)cn1 [Compound 349, 7-[[6-(1-methylpyrazol-4-yl)-3-pyridyl]methyl]-N-[[(2S)-tetrahydrofuran-2-yl]methyl]thieno[3,2-b]pyridine-5-carboxamide]
80.5	70.5	Cn1ccc(-c2ccc(Cc3cc(C(=O)NC4CCOCC4)nc4ccsc34)cn2)n1 [Compound 350, 7-[[6-(1-methylpyrazol-3-yl)-3-pyridyl]methyl]-N-tetrahydropyran-4-yl-thieno[3,2-b]pyridine-5-carboxamide]
143	89.9	Cn1ccc(-c2ccc(Cc3cc(C(=O)NC4CC5(COC5)C4)nc4ccsc34)cn2)n1 [Compound 351, 7-[[6-(1-methylpyrazol-3-yl)-3-pyridyl]methyl]-N-(2-oxaspiro[3.3]heptan-6-yl)thieno[3,2-b]pyridine-5-carboxamide]
32.7	90.7	Cn1ccc(-c2ccc(Cc3cc(C(=O)N[C@H]4CCC[C@@H]4O)nc4ccsc34)cn2)n1 [Compound 352, N-[(1S,2S)-2-hydroxycyclopentyl]-7-[[6-(1-methylpyrazol-3-yl)-3-pyridyl]methyl]thieno[3,2-b]pyridine-5-carboxamide]
5.05	62.1	Cn1ccc(-c2ccc(Cc3cc(C(=O)N[C@H]4CCOC[C@@H]4O)nc4ccsc34)cn2)n1 [Compound 353, N-[(3R,4S)-3-hydroxytetrahydropyran-4-yl]-7-[[6-(1-methylpyrazol-3-yl)-3-pyridyl]methyl]thieno[3,2-b]pyridine-5-carboxamide]
14.8	64.2	Cn1ccc(-c2ccc(Cc3cc(C(=O)N[C@H]4CCCC[C@@H]4O)nc4ccsc34)cn2)n1 [Compound 354, N-[(1S,2S)-2-hydroxycyclohexyl]-7-[[6-(1-methylpyrazol-3-yl)-3-pyridyl]methyl]thieno[3,2-b]pyridine-5-carboxamide]
355	86.6	Cn1ccc(-c2ccc(Cc3cc(C(=O)NCC4CCO4)nc4ccsc34)cn2)n1 (stereo not drawn) [Compound 355, 7-[[6-(1-methylpyrazol-3-yl)-3-pyridyl]methyl]-N-(oxetan-2-ylmethyl)thieno[3,2-b]pyridine-5-carboxamide]
390	84.8	Cn1ccc(-c2ccc(Cc3cc(C(=O)NCC4CCOC4)nc4ccsc34)cn2)n1 (stereo not drawn) [Compound 356, 7-[[6-(1-methylpyrazol-3-yl)-3-pyridyl]methyl]-N-(tetrahydrofuran-3-ylmethyl)thieno[3,2-b]pyridine-5-carboxamide]
458	86.5	Cn1ccc(-c2ccc(Cc3cc(C(=O)NC[C@@H]4CCOC4)nc4ccsc34)cn2)n1 [Compound 357]
201	84.3	Cn1ccc(-c2ccc(Cc3cc(C(=O)NCC4CCOCC4)nc4ccsc34)cn2)n1 [Compound 358, 7-[[6-(1-methylpyrazol-3-yl)-3-pyridyl]methyl]-N-(tetrahydropyran-4-ylmethyl)thieno[3,2-b]pyridine-5-carboxamide]
573	83.4	Cn1ccc(-c2ccc(Cc3cc(C(=O)NCC4CCCCO4)nc4ccsc34)cn2)n1 (stereo not drawn) [Compound 359, 7-[[6-(1-methylpyrazol-3-yl)-3-pyridyl]methyl]-N-(tetrahydropyran-2-ylmethyl)thieno[3,2-b]pyridine-5-carboxamide]
38.5	88.1	Cn1cc(-c2ccc(Cc3cc(C(=O)NCC4CCN4)nc4ccsc34)cn2)cn1 (stereo not drawn) [Compound 360, N-(azetidin-2-ylmethyl)-7-[[6-(1-methylpyrazol-4-yl)-3-pyridyl]methyl]thieno[3,2-b]pyridine-5-carboxamide]
114	86.9	Cn1cc(-c2ccc(Cc3cc(C(=O)N[C@@H]4CCCOC4)nc4ccsc34)cn2)cn1 [Compound 361, 7-[[6-(1-methylpyrazol-4-yl)-3-pyridyl]methyl]-N-[(3R)-tetrahydropyran-3-yl]thieno[3,2-b]pyridine-5-carboxamide]
84.9	72.4	Cn1cc(-c2ccc(Cc3cc(C(=O)NC4CCOCC4(C)C)nc4ccsc34)cn2)cn1 (stereo not drawn) [Compound 362, N-(3,3-dimethyltetrahydropyran-4-yl)-7-[[6-(1-methylpyrazol-4-yl)-3-pyridyl]methyl]thieno[3,2-b]pyridine-5-carboxamide]
321	85.2	COCC(C)NC(=O)c1cc(Cc2ccc(-c3cnn(C)c3)nc2)c2sccc2n1 (stereo not drawn) [Compound 363, N-(2-methoxy-1-methyl-ethyl)-7-[[6-(1-methylpyrazol-4-yl)-3-pyridyl]methyl]thieno[3,2-b]pyridine-5-carboxamide]
832	83.8	Cn1cc(-c2ccc(Cc3cc(C(=O)NC4CN(C5COC5)C4)nc4ccsc34)cn2)cn1 [Compound 364]
1350	57.9	O=C(NC1COC1)c1cc(Cc2ccc(-c3nccs3)cc2)c2sccc2n1 [Compound 365, N-(oxetan-3-yl)-7-[(4-thiazol-2-ylphenyl)methyl]thieno[3,2-b]pyridine-5-carboxamide]
1870	83.7	O=C(NC1CCCOC1)c1cc(Cc2ccc(-c3nccs3)cc2)c2sccc2n1 (stereo not drawn) [Compound 366, N-tetrahydropyran-3-yl-7-[(4-thiazol-2-ylphenyl)methyl]thieno[3,2-b]pyridine-5-carboxamide]
> 10000	71.9	O=C(NC1CC(F)C1)c1cc(Cc2ccc(-c3nccs3)cc2)c2sccc2n1 (stereo not drawn) [Compound 367, N-(3-fluorocyclobutyl)-7-[(4-thiazol-2-ylphenyl)methyl]thieno[3,2-b]pyridine-5-carboxamide]

— patent publication US11111251B2, “Positive allosteric modulators of the muscarinic acetylcholine receptor M1” (Vanderbilt University, priority 2016, dated 2021)
